# Legend:
# [1] = biological target: Proto-oncogene tyrosine-protein kinase receptor Ret (Homo sapiens) (UniProt P07949); assay: Inhibition of human RET assessed as residual activity at 1 uM relative to control
# [2] = biological target: CDK6/cyclin D3 (Homo sapiens) (UniProt P30281+Q00534); assay: Inhibition of human CDK6/cyclin D3 assessed as residual activity at 1 uM relative to control; type: protein-complex assay
# [3] = biological target: Rho-associated protein kinase 1 (Homo sapiens) (UniProt Q13464); assay: Inhibition of human ROCK-1 assessed as residual activity at 1 uM relative to control
# Rho-associated protein kinase 1 (Homo sapiens), sequence (Q13464 2-1354 limits assumed): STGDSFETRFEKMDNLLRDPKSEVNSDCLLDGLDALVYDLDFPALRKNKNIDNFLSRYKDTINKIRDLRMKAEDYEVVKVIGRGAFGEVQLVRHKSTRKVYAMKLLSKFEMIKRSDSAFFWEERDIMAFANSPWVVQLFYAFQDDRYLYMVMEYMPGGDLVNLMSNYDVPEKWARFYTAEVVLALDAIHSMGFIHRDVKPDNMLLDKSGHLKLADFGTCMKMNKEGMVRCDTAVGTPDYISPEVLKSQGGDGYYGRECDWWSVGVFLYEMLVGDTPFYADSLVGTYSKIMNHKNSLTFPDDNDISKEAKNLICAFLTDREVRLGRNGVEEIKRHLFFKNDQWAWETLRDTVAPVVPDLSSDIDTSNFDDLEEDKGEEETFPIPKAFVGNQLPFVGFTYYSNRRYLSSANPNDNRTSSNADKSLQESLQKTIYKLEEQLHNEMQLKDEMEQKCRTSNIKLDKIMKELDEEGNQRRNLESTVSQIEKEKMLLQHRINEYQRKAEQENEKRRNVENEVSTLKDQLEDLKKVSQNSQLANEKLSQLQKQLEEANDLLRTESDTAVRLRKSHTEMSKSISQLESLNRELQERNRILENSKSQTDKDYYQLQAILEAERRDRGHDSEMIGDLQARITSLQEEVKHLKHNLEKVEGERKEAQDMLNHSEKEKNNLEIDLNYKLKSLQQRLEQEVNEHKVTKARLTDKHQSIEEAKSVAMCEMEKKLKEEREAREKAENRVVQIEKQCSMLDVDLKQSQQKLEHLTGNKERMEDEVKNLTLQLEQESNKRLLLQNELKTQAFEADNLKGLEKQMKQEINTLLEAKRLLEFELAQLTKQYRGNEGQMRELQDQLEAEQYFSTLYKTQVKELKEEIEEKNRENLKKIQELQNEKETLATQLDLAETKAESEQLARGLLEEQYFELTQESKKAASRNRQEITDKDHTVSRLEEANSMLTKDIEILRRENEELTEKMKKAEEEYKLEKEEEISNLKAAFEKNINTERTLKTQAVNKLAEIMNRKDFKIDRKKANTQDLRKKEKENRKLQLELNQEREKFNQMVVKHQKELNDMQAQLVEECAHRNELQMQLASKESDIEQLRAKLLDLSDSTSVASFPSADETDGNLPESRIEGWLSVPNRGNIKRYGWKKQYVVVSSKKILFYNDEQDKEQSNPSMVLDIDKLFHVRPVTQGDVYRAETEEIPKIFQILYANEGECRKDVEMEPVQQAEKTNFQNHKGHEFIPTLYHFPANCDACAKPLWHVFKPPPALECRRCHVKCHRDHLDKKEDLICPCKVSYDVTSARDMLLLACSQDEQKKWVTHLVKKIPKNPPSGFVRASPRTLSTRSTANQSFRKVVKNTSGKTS
# [4] = biological target: Vascular endothelial growth factor receptor 1 (Homo sapiens) (UniProt P17948); assay: Inhibition of human FLT1 assessed as residual activity at 1 uM relative to control
# Vascular endothelial growth factor receptor 1 (Homo sapiens), sequence (P17948 whole entry): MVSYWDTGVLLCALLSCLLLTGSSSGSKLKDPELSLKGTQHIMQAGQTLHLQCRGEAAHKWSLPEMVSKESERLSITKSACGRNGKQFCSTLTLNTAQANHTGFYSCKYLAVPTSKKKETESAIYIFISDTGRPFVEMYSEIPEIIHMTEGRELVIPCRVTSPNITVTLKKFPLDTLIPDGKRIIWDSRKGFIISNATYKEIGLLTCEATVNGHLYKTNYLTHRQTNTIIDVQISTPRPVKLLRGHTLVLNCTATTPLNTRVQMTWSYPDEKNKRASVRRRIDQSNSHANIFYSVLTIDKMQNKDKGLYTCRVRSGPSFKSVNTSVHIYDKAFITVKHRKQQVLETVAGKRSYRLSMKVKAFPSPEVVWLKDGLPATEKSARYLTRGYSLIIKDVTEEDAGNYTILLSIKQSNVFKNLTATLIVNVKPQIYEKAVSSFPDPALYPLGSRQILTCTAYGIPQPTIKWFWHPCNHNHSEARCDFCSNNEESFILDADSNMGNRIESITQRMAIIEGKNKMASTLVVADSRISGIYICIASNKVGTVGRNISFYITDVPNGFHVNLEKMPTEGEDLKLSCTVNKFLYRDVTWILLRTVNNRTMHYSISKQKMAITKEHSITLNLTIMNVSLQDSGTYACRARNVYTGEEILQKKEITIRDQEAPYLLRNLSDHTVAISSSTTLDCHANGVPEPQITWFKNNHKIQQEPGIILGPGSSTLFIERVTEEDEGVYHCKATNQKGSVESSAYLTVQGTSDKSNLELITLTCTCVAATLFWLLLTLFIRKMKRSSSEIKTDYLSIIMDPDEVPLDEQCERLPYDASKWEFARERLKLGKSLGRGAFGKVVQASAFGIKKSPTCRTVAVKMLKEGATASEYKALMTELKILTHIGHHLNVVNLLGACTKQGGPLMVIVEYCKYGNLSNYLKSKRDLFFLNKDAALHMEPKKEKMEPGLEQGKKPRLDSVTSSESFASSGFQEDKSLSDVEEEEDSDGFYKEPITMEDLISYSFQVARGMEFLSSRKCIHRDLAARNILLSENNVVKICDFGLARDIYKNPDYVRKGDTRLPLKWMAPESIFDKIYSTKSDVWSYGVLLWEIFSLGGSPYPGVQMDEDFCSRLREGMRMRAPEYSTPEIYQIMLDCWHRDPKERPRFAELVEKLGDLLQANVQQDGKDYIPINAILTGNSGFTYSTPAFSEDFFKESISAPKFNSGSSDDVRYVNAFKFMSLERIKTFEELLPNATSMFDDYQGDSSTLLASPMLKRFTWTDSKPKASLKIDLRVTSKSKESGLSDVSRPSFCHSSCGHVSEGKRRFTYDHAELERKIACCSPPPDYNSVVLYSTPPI
# [5] = biological target: T1, Serine/threonine-protein kinase STK11 (Homo sapiens) (UniProt Q15831); assay: Inhibition of human LKB1 assessed as residual activity at 1 uM relative to control
# T1 sequence (whole entry): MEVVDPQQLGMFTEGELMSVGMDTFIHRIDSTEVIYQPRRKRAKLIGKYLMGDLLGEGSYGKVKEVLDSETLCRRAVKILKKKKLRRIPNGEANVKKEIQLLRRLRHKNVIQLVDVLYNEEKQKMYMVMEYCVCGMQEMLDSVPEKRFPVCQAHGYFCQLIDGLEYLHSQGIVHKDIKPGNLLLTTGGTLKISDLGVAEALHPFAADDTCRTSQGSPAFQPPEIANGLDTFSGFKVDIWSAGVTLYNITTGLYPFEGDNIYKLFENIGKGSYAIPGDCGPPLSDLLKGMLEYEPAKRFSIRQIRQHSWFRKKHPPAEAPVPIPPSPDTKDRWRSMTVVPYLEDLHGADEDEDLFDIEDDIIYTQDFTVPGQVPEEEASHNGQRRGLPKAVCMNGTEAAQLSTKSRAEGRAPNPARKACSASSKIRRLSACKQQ
# [6] = biological target: Misshapen-like kinase 1 (Homo sapiens) (UniProt Q8N4C8); assay: Inhibition of human MINK assessed as residual activity at 1 uM relative to control
# Misshapen-like kinase 1 (Homo sapiens), sequence (Q8N4C8 whole entry, looked up): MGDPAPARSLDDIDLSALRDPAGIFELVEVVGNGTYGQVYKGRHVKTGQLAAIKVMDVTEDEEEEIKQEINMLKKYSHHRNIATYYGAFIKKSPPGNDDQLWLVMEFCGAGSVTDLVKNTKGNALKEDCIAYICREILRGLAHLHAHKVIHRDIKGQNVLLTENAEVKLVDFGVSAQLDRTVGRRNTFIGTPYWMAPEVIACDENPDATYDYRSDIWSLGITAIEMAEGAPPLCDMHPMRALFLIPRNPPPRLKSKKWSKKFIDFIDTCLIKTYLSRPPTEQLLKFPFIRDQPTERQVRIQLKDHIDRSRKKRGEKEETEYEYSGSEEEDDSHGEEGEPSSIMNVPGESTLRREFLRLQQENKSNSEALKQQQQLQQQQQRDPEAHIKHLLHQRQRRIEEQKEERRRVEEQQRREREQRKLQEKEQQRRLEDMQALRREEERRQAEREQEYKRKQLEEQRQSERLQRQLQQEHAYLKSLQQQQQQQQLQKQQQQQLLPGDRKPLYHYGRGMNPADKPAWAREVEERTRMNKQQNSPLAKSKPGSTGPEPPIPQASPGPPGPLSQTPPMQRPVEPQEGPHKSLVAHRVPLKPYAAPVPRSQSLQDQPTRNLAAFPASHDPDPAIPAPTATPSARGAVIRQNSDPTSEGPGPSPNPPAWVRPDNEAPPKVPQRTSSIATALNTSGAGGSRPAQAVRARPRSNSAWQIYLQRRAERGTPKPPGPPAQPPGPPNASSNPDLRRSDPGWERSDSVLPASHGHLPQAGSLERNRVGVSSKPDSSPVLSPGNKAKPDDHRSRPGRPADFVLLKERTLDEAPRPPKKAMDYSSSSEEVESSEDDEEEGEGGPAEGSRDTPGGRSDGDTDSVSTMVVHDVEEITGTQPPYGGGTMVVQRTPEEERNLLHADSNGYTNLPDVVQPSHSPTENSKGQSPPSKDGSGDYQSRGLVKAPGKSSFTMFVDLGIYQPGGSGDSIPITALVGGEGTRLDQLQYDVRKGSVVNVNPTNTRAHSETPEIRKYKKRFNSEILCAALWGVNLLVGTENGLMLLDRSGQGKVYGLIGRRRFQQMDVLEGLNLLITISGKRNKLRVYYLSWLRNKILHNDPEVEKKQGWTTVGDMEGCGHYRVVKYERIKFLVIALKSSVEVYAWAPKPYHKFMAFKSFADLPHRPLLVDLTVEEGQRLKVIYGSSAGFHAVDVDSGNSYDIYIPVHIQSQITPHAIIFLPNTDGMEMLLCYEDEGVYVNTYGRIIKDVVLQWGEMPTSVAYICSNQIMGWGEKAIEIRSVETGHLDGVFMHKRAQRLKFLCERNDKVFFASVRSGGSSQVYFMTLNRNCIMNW
# [7] = biological target: T2, Activin receptor type-1B (Homo sapiens) (UniProt P36896); assay: Inhibition of human ALK4 assessed as residual activity at 1 uM relative to control
# T2 sequence (whole entry): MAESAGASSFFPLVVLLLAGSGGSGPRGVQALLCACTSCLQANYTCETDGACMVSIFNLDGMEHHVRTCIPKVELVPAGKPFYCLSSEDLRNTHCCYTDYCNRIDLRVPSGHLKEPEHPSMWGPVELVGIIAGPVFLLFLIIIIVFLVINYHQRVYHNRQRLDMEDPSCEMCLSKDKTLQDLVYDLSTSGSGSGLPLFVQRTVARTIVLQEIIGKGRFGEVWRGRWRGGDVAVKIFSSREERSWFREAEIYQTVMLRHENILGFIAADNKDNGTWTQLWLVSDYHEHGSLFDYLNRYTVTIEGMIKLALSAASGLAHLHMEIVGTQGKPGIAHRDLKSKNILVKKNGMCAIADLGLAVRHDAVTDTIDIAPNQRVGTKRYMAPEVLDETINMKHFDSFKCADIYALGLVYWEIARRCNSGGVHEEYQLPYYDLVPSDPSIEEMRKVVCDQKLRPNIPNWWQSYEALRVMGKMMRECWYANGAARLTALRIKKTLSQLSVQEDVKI
# [8] = biological target: 5'-AMP-activated protein kinase catalytic subunit alpha-2 (Homo sapiens) (UniProt P54646); assay: Inhibition of human AMPKalpha2 assessed as residual activity at 1 uM relative to control
# 5'-AMP-activated protein kinase catalytic subunit alpha-2 (Homo sapiens), sequence (P54646 whole entry, looked up): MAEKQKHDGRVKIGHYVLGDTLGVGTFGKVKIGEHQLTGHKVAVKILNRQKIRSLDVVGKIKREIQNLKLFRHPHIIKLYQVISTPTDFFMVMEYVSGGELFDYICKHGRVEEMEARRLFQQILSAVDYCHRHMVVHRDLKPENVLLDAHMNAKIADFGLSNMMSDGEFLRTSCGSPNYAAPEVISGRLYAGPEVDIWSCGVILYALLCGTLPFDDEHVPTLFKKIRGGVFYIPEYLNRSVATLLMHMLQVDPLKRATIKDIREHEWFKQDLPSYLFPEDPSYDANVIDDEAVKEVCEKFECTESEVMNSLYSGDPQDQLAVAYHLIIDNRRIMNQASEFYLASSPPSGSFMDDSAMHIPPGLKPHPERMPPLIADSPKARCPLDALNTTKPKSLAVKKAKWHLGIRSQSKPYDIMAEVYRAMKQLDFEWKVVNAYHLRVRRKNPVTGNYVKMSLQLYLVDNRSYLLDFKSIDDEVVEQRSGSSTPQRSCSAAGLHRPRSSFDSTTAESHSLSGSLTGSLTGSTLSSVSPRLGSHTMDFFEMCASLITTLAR
# [9] = biological target: Insulin receptor-related protein (Homo sapiens) (UniProt P14616); assay: Inhibition of human IRR assessed as residual activity at 1 uM relative to control
# [10] = biological target: T3, Serine/threonine-protein kinase 17A (Homo sapiens) (UniProt Q9UEE5); assay: Inhibition of human DRAK1 assessed as residual activity at 1 uM relative to control
# T3 sequence (whole entry): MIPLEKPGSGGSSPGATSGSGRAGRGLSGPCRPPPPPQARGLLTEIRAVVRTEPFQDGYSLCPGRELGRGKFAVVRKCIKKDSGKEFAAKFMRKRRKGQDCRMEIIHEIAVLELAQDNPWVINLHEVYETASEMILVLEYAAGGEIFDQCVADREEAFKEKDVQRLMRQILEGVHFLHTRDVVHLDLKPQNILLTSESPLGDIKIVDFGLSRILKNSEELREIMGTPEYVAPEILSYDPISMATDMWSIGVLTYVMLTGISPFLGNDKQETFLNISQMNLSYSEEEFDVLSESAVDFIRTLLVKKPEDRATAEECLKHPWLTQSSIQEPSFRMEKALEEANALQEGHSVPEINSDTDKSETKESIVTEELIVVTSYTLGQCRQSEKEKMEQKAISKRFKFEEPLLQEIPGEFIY
# [11] = biological target: MAP kinase-interacting serine/threonine-protein kinase 2 (Homo sapiens) (UniProt Q9HBH9); assay: Inhibition of human MNK2 assessed as residual activity at 1 uM relative to control
# [12] = biological target: Mitogen-activated protein kinase 14 (Homo sapiens) (UniProt Q16539); assay: Inhibition of human SAPK2alpha assessed as residual activity at 1 uM relative to control
# [13] = biological target: Tyrosine-protein kinase Yes (Homo sapiens) (UniProt P07947); assay: Inhibition of human YES assessed as residual activity at 1 uM relative to control
# Tyrosine-protein kinase Yes (Homo sapiens), sequence (P07947 2-543 limits assumed): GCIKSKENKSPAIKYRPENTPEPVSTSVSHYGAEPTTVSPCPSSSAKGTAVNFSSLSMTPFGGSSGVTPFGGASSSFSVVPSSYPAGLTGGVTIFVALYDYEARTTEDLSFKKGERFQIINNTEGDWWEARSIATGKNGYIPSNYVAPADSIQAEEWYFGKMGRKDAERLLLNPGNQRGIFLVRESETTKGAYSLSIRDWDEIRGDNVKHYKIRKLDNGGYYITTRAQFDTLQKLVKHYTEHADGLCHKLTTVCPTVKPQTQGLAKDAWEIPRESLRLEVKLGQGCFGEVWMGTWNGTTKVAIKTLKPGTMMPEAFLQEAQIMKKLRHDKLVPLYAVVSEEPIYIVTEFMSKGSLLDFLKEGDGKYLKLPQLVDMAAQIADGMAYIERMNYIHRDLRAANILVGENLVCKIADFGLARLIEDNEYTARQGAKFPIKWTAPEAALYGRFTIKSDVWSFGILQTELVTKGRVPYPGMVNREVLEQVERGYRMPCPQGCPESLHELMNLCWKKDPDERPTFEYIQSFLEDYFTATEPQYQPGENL
# [14] = biological target: CDK9/cyclin T1 (Homo sapiens) (UniProt O60563+P50750); assay: Inhibition of human CDK9/cyclin T1 assessed as residual activity at 1 uM relative to control; type: protein-complex assay
Activity [1] [%],Activity [2] [%],Activity [3] [%],Activity [4] [%],Activity [5] [%],Activity [6] [%],Activity [7] [%],Activity [8] [%],Activity [9] [%],Activity [10] [%],Activity [11] [%],Activity [12] [%],Activity [13] [%],Activity [14] [%],Compound
6,103,113,10,92,99,96,28,92,4,4,107,6,100,COc1ccc(-c2nc3cc(-c4csc(C(=O)NCC(C)C)c4)cnc3[nH]2)cc1
7,102,98,22,97,86,85,42,80,7,1,111,5,95,COc1ccc(-c2nc3cc(-c4csc(C(=O)NCCC(C)C)c4)cnc3[nH]2)cc1
10,105,104,24,81,82,85,46,70,8,5,93,15,103,COc1ccc(-c2nc3cc(-c4csc(C(=O)NCC(C)(C)C)c4)cnc3[nH]2)cc1
